From publication PMC9944328 (Nature Communications, 2023)

System: SSTR2 mutants
Assay: SSTRs Gi-mediated cAMP inhibition, GloSensor, HEK293, 5 μM forskolin, 15 min room temperature (SSTR2 mutants)
Assay type: cell-based, human
Details: for Fold of WT: Gi signaling EC50
Experimental: The levels of the intracellular 3′, 5′-cyclic AMP (cAMP) were measured by the GloSensor cAMP assay (Promega) as described in the previous studies[28],[41] which has been widely used. The human full-length SSTRs and mutants were cloned into the pcDNA3.1+ vector with a HA signal sequence followed by a Flag tag at the N-terminus. HEK293 cells (ATCC, CRL-1573) were seeded into 6-well microplates at a density of 1.0 × 10^6 cells/well and cultured for 24 h at 37 °C with 5% CO2. Cells were then co-transfected with SSTR wild-type or mutants and GloSensor plasmids. After 24 h of transfection, the cells were dissociated with TrypLE™ Express Enzyme (1X) (Thermo Fisher Scientific) and collected by centrifugation at 500 × g for 5 min. Then the collected cells were suspended in Hank’s balanced salt solution [HBSS (Thermo Fisher Scientific)] supplemented with […] (YEASEN), and then the suspension cells were seeded into 96-well plates with 90 μl/well. After incubating at room temperature for 40 min, 5 μM forskolin and ligands diluted in HBSS were added to each well and the plates were incubated at room temperature for 15 min. […] were measured using the Synergy H1 microplate reader (BioTek) and the data presented are means of at least three independent experiments.

N#Cc1cccc(-c2ccc3ncc(-c4cc(F)cc(F)c4)c(N4CCC(N)CC4)c3c2)c1O [paltusotine]
Activation potency of mutant (D295(7.36) substituted with a bulkier side chain, SSTR2): reduced the activation potency | Bottom (best-fit value), cAMP inhibition (D295A-1 (run 1)): -5.811 | LogEC50 (best-fit value), cAMP inhibition (D295A-1 (run 1)): -7.797 | Span (best-fit value), cAMP inhibition (D295A-1 (run 1)): 125.1 | Top (best-fit value), cAMP inhibition (D295A-1 (run 1)): 119.3 | Bottom (best-fit value), cAMP inhibition (D295A-2 (run 2)): -4.778 | LogEC50 (best-fit value), cAMP inhibition (D295A-2 (run 2)): -7.798 | Span (best-fit value), cAMP inhibition (D295A-2 (run 2)): 119.6 | Top (best-fit value), cAMP inhibition (D295A-2 (run 2)): 114.8 | Bottom (best-fit value), cAMP inhibition (D295A-3 (run 3)): -4.901 | LogEC50 (best-fit value), cAMP inhibition (D295A-3 (run 3)): -7.743 | Span (best-fit value), cAMP inhibition (D295A-3 (run 3)): 121.4 | Top (best-fit value), cAMP inhibition (D295A-3 (run 3)): 116.5 | Bottom (best-fit) (D295F, run 1): -4.815 | LogEC50 (D295F, run 1): -9.49 | Span (best-fit) (D295F, run 1): 83.08 | Top (best-fit) (D295F, run 1): 78.27 | Bottom (best-fit) (D295F, run 2): -4.16 | LogEC50 (D295F, run 2): -9.689 | Span (best-fit) (D295F, run 2): 84.37 | Top (best-fit) (D295F, run 2): 80.21 | Bottom (best-fit) (D295F, run 3): 9.942 | LogEC50 (D295F, run 3): -8.808 | Span (best-fit) (D295F, run 3): 67.74 | Top (best-fit) (D295F, run 3): 77.68 | Bottom (best-fit value) (F208A-1 (run 1)): 6.193 | LogEC50 (best-fit value) (F208A-1 (run 1)): -7.826 | Span (best-fit value) (F208A-1 (run 1)): 90.63 | Top (best-fit value) (F208A-1 (run 1)): 96.82 | Bottom (best-fit value) (F208A-2 (run 2)): 3.33 | LogEC50 (best-fit value) (F208A-2 (run 2)): -7.007 | Span (best-fit value) (F208A-2 (run 2)): 88.37 | Top (best-fit value) (F208A-2 (run 2)): 91.7 | Bottom (best-fit value) (F208A-3 (run 3)): -2.358 | LogEC50 (best-fit value) (F208A-3 (run 3)): -7.101 | Span (best-fit value) (F208A-3 (run 3)): 89.17 | Top (best-fit value) (F208A-3 (run 3)): 86.81 | Bottom (best-fit value) (F265A-1 (run 1)): -8.311 | LogEC50 (best-fit value) (F265A-1 (run 1)): -7.946 | Span (best-fit value) (F265A-1 (run 1)): 113.6 | Top (best-fit value) (F265A-1 (run 1)): 105.3 | Bottom (best-fit value) (F265A-2 (run 2)): -6.152 | LogEC50 (best-fit value) (F265A-2 (run 2)): -7.834 | Span (best-fit value) (F265A-2 (run 2)): 121 | Top (best-fit value) (F265A-2 (run 2)): 114.8 | Bottom (best-fit value) (F265A-3 (run 3)): -8.585 | LogEC50 (best-fit value) (F265A-3 (run 3)): -8.008 | Span (best-fit value) (F265A-3 (run 3)): 129.6 | Top (best-fit value) (F265A-3 (run 3)): 121 | Bottom (best-fit value) (F272A-1 (run 1)): 9.906 | LogEC50 (best-fit value), cAMP inhibition (F272A-1 (run 1)): -7.753 | Span (best-fit value), cAMP inhibition (F272A-1 (run 1)): 47.19 | Top (best-fit value) (F272A-1 (run 1)): 57.1 | Bottom (best-fit value) (F272A-2 (run 2)): 0.969 | LogEC50 (best-fit value), cAMP inhibition (F272A-2 (run 2)): -7.573 | Span (best-fit value), cAMP inhibition (F272A-2 (run 2)): 51.72 | Top (best-fit value) (F272A-2 (run 2)): 52.69 | Bottom (best-fit value) (F272A-3 (run 3)): 2.026 | LogEC50 (best-fit value), cAMP inhibition (F272A-3 (run 3)): -6.838 | Span (best-fit value), cAMP inhibition (F272A-3 (run 3)): 59.81 | Top (best-fit value) (F272A-3 (run 3)): 61.84 | Bottom (best-fit value), cAMP inhibition (F294A-1 (run 1)): 3.955 | LogEC50 (best-fit value), cAMP inhibition (F294A-1 (run 1)): -8.447 | Span (best-fit value), cAMP inhibition (F294A-1 (run 1)): 85.58 | Top (best-fit value), cAMP inhibition (F294A-1 (run 1)): 89.53 | Bottom (best-fit value), cAMP inhibition (F294A-2 (run 2)): -11.05 | LogEC50 (best-fit value), cAMP inhibition (F294A-2 (run 2)): -8.376 | Span (best-fit value), cAMP inhibition (F294A-2 (run 2)): 101.1 | Top (best-fit value), cAMP inhibition (F294A-2 (run 2)): 90.09 | Bottom (best-fit value), cAMP inhibition (F294A-3 (run 3)): 15.03 | LogEC50 (best-fit value), cAMP inhibition (F294A-3 (run 3)): -9.824 | Span (best-fit value), cAMP inhibition (F294A-3 (run 3)): 106.4 | Top (best-fit value), cAMP inhibition (F294A-3 (run 3)): 121.4 | Bottom (best-fit) (F294Y, run 1): 11.7 | LogEC50 (F294Y, run 1): -9.133 | Span (best-fit) (F294Y, run 1): 95.55 | Top (best-fit) (F294Y, run 1): 107.3 | Bottom (best-fit) (F294Y, run 2): 3.363 | LogEC50 (F294Y, run 2): -9.003 | Span (best-fit) (F294Y, run 2): 99.71 | Top (best-fit) (F294Y, run 2): 103.1 | Bottom (best-fit) (F294Y, run 3): -9.817 | LogEC50 (F294Y, run 3): -9.17 | Span (best-fit) (F294Y, run 3): 128.4 | Top (best-fit) (F294Y, run 3): 118.6 | Fold of WT (SSTR2 D295(7.36)A): 1.30 | Fold of WT (SSTR2 F127(3.37)A): 0.54 | Fold of WT (SSTR2 F208(5.38)A): 34.16 | Fold of WT (SSTR2 F265(6.44)A): 6.35 | Fold of WT (SSTR2 F272A): 33.58 | Fold of WT (SSTR2 F294(7.35)A): 1.40 | Fold of WT (SSTR2 I130(3.40)A): 10.09 | Fold of WT (SSTR2 I195(45.52)A): 44.36 | Fold of WT (SSTR2 K291(7.32)A): 2.78 | Fold of WT (SSTR2 L99(2.60)A): 9.09 | Fold of WT (SSTR2 N276(6.55)A): 0.88 | Fold of WT (SSTR2 P220(5.50)A): 1.71 | Fold of WT (SSTR2 Q102(2.63)A): 16.51 | Fold of WT (SSTR2 T194(45.51)A): 51.98 | Fold of WT (SSTR2 V103(2.64)A): 17.54 | Fold of WT (SSTR2 W269(6.48)A): 0.23
